In patent US20250195468A1, “METHODS AND COMPOSITIONS FOR TREATING COLORECTAL CANCER WITH INDOXYL SULFATE” (National Institute of Immunology, priority 2023, published 2025):
Counter-ions that a name gives are not always drawn.

Experiments:
HT-29 cells = test: Cell viability by MTT assay; type: cell-based, human; conditions: for viability at 10000 µM: Homo sapiens, HT-29, 10 mM, untreated = 100%
Method: (§1) Human colon epithelial adenocarcinoma cell lines, HT-29 and HCT-116 (procured from ATCC), are commonly utilized for CRC research. HT-29 cells were cultured in McCoy 5A media (Gibco) supplemented with 10% heat-inactivated FBS (Gibco) and penicillin-streptomycin (Sigma-Aldrich: Merck KGaA, Germany). On the other hand, HCT-116 cells were cultured in Dulbecco's modified Eagle's medium-F12 nutrient mixture (DMEM-F12: Gibco) supplemented with 10% heat-inactivated FBS (Gibco) and penicillin-streptomycin (Sigma-Aldrich: Merck KGaA, Germany). The cells were incubated in a humidified incubator at 37° C. with 5% CO2.
(§2) To evaluate the impact of IS treatment, cell viability was assessed using Thiazolyl Blue Tetrazolium Bromide (MTT) dye. HT-29 and HCT-116 cells were seeded at a density of 3000 cells per well in a 96-well plate. After 24 hours of seeding, the cells were exposed to various concentrations of IS, including 0.018 mM, 0.037 mM, 0.075 mM, 0.15 mM. 0.31 mM, 0.62 mM. 1.25 mM, 2.5 mM, 5 mM, and 10 mM. Triplicate wells were treated with IS for three different incubation periods: 24 hours, 48 hours, and 72 hours. After the respective incubation periods. 20 μl of MTT dye (5 mg/ml) was added to each well and incubated for 3 hours. The yellow MTT dye is converted into purple formazan crystals by the mitochondrial succinate dehydrogenase enzyme, NAD (P) H. Following the incubation, 100 μl of dimethyl sulphoxide (DMSO) was added to dissolve the formazan crystals. Formazan crystal dissolve immediately after adding DMSO, so taken the reading just after adding the DMSO. The intensity of the purple color is directly proportional to cell viability. Absorbance was measured at 570 nm using a Multiskan Sky microplate spectrophotometer (Thermo Scientific). Non-treated cells served as controls and were considered 100% viable.

HCT-116 cells = test: Cell viability by MTT assay; type: cell-based, human; conditions: for viability at 10000 µM: Homo sapiens, HCT-116, 10 mM, untreated = 100%
Method: as §1, §2

**Q.** How did the “cell viability” value (HT-29 cells; 0.62 mM, cell line not given) turn out when `O=S(=O)(O)Oc1c[nH]c2ccccc12` [IS, Indoxyl Sulfate] was run?
**A.** Its value is “cell viability unexpectedly increased”.

**Q.** And the viability at 10000 µM (HT-29 cells; 24 hours)?
**A.** The viability at 10000 µM was 41%.

**Q.** What about the viability at 10000 µM (HT-29 cells; 48 hours) of the same compound?
**A.** The viability at 10000 µM was 30%.

**Q.** And the viability at 10000 µM (HT-29 cells; 72 hours)?
**A.** Its viability at 10000 µM is 17%.

**Q.** And the “cell viability” value (HCT-116 cells; 0.62 mM, cell line not given)?
**A.** The value was “cell viability unexpectedly increased”.

**Q.** What about the viability at 10000 µM (HCT-116 cells; 24 hours) of the same compound?
**A.** The viability at 10000 µM was 30%.

**Q.** And the viability at 10000 µM (HCT-116 cells; 48 hours)?
**A.** Its viability at 10000 µM is 7%.

**Q.** And the viability at 10000 µM (HCT-116 cells; 72 hours)?
**A.** Its viability at 10000 µM is 4%.
